Laboratory results from patent US10544159B2, “Artemisinin derivatives, methods for their preparation and their use as antimalarial agents” (priority 2012, dated 2020).

Key:
P. berghei ANKA = assay: Antimalarial activity in Plasmodium berghei-infected mice; assay type: in vivo; parameters: fold higher survival rate than in the absence of treatment: concentration or dose not given beside the values; conditions: male C57BL6 mice, after day 7
Description: Briefly, asynchronous P. falciparum (strain 3d7) cultures were maintained at 37° C. at >10% parasitemia in fresh human red blood cells (2% hematocrit) in complete malaria medium. After 4 days (i.e., after 2 replicative parasitic cycles) flasks were synchronized with 5% sorbitol. 72 hours after synchronization, cells were plated and treated with the artemisinin derivatives at various concentrations. After 48 hours of incubation, the cells were lysed and labeled with SybrGreen and fluorescence emission was measured (excitation at 485 nm, emission at 530 nm). […] For the in vivo studies, male C57BL6 mice (6-8 weeks old) were infected with 0.7×10^5 P. berghei ANKA iRBCs and then treated with intraperitoneal injections of the compounds starting from day 3-5 post infection. A set of mice was left untreated and served as negative control. Survival was monitored and parasitemia determined SYBR-green (SYBRGr) staining of infected red blood cells and subsequent flow cytometric analysis.

wild-type P450BM3 = wild-type P450BM3 (Priestia megaterium, UniProt P14779); conditions: fatty acid laurate with wild-type P450BM3; read-out: equilibrium dissociation constant; cited from earlier work
Chain of wild-type P450BM3 (P14779 whole entry): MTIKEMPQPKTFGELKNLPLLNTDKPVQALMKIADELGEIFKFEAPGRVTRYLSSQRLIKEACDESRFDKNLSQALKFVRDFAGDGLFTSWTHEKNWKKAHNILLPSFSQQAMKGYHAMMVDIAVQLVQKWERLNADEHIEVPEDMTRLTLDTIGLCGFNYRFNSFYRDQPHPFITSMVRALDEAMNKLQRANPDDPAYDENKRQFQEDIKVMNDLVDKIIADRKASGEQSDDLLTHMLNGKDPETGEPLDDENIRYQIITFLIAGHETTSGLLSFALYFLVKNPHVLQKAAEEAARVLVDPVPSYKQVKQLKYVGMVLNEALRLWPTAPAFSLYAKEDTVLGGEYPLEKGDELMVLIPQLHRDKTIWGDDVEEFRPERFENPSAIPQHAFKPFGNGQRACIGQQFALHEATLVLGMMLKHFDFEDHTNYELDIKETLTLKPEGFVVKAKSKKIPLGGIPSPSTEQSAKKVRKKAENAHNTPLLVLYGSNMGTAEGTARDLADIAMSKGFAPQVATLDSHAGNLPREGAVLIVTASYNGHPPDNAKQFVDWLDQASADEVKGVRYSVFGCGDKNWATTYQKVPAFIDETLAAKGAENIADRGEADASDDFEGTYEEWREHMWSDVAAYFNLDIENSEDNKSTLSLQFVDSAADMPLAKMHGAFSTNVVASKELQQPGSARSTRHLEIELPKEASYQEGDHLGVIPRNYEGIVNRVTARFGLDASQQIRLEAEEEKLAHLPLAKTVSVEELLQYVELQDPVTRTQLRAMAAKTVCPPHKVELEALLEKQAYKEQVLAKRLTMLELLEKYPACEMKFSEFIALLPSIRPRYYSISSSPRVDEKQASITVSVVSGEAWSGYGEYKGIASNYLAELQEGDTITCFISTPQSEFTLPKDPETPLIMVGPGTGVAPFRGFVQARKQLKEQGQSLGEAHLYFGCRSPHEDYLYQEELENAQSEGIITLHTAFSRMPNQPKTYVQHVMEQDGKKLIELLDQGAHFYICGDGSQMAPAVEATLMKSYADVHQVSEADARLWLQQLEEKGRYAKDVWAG

[1] = molecular target: P450 variant FL#62 (SEQ ID NO. 8) (Priestia megaterium, UniProt P14779, A181T/A185V/A198V/A291V/A83V/E253G/F206C/F82S/F88A/H237Q/L354V/P143S/R256S/S227R/T176I/V79A); conditions: 0.5 mM substrate, 1 μM FL#62, 12 hours
Chain of P450 variant FL#62 (SEQ ID NO. 8) (P14779 other isoform, or with tags, fused parts or gaps with the stated changes): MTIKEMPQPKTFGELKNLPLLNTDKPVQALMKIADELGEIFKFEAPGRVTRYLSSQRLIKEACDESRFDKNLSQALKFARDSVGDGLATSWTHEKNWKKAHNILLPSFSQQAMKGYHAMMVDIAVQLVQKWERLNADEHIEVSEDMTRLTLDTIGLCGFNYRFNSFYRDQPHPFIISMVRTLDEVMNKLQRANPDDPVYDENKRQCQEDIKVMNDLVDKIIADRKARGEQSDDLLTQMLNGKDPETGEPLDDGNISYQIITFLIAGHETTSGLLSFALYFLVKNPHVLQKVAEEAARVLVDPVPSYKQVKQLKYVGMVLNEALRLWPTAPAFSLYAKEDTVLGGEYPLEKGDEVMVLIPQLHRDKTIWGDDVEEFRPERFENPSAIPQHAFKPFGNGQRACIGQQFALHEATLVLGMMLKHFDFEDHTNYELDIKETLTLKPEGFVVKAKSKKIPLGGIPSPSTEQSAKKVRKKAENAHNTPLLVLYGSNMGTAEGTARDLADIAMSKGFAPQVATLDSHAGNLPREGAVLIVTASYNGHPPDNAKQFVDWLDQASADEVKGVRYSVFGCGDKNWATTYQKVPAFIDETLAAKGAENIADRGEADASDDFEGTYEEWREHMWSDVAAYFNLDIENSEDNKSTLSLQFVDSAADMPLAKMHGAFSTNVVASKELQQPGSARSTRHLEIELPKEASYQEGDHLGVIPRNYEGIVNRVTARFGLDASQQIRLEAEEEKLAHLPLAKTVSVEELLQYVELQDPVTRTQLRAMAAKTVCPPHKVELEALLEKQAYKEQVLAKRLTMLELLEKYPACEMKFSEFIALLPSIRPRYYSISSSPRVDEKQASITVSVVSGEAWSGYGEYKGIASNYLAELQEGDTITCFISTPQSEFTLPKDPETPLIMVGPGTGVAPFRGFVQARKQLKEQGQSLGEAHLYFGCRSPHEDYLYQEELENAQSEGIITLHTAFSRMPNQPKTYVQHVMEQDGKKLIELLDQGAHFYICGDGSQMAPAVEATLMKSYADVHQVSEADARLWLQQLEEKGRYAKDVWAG
Description: Reaction conditions were: 0.5 mM substrate, 1 μM FL#62 (SEQ ID NO: 8), 2 μM PTDH, 100 μM NADP^+, and 50 mM sodium phosphite in potassium phosphate buffer (50 mM, pH 8.0). After 12 hours, the hydroxylation products formed in these reactions were extracted with dichloromethane and quantified by HPLC and LC-MS.

CC1C(=O)OC2OC3(C)CCC4C(C)[C@H](F)CC1C24OO3 (stereo partly drawn) [Compound 5, 7(R)-fluoro-artemisinin]
survival rate (P. berghei ANKA; intraperitoneal injections starting from day 3-5 post infection): 80% | fold higher survival rate than in the absence of treatment (P. berghei ANKA; intraperitoneal): 2 fold

CCCCCCCCCCCC(=O)O [laurate]
Kd (wild-type P450BM3): 270 µM

COC(=O)CCC(=O)O[C@@H]1O[C@@H]2O[C@@]3(C)CC[C@H]4[C@H](C)CC[C@@H]([C@H]1C)[C@@]24OO3 [artesunate methyl ester]
catalytic activity relative to that displayed in the presence of artemisinin [1]: ca. 80%
